Assay results: US8097640B2, “Prophylactic or therapeutic agent for diabetic maculopathy” (Sanwa Kagaku Kenkyusho Co., Ltd., priority 2004, dated 2012)
Several values for one entry are separate records, joined by “and”; a condition that tells them apart may be missing. Equal entries are not always repeated.

How the values were obtained:
[1] = tested on: edema in the macular central fovea of diabetic monkeys; test: Monkey Test: thickness and volume of macular central fovea (OCT) after ischemia/reperfusion in STZ diabetic monkeys; assay type: in vivo, Macaca fascicularis
Procedure: Diabetes mellitus was induced in male monkeys (Macaca fascicularis) (3-year-old) weighing about 2.1 to 2.4 kg by intravenously injecting STZ into their foreleg vein at the dose of 80 mg/kg. Two days after the treatment with STZ, blood glucose level was measured, and monkeys with at least 200 mg/dl glucose were then used in the experiment as diabetic monkeys. Insulin was administered subcutaneously once or twice per day into monkeys showing a blood glucose level of 300 mg/dl. The set groups were the following 3 groups, and from 2 weeks after the treatment with STZ, 5% gum arabic solution or SNK-860 solution was orally administered once a day. • (1) Normal control group (4 monkeys): Given 5% gum arabic solution in a ratio of 5 ml/kg. • (2) Diabetic control group (6 monkeys): Given 5% gum arabic solution in a ratio of 5 ml/kg. • (3) Diabetic group given 32 mg/kg SNK-860 (4 monkeys): Given a suspension of SNK-860 (32 mg/5 ml) in 5% gum arabic solution in a ratio of 5 ml/kg.
After administration for 2 weeks, intraocular ischemic treatment was carried out as described below, and after the treatment was finished, the animals were maintained as usual for 7 days. Before the ischemic treatment and 7 days after treatment, the thickness and volume of the macular central fovea (in the diameter range of 1 mm from the center of the macula lutea) were measured by an OCT scanner (Stratus OCT, Carl Zeiss). Administration of the pharmacological agent was also conducted for the period (7 days) of reperfusion after the ischemic treatment.
Retinal ischemia produced by increasing intraocular pressure was in accordance with Efficacy Pharmaceutical Test Example 1. However, the size of the needle used was 25 G×½ (Terumo). After a mydriatic (Mydrin P manufactured by Santen Pharmaceutical) was dropped onto the right eye, the monkey was anesthetized by intramuscularly administering ketaral (Sankyo Life Tech). Subsequently, a local anesthetic (Benoxyl eye drop 0.4%) was dropped onto the eye, and the monkey was prevented from blinking with an eyelid speculum. Anesthesia with ketaral was additionally carried out when necessary.
The thickness and volume of the macular central fovea were measured in the following manner. After a mydriatic (Mydrin P) was dropped onto the right eye of the monkey to dilate the pupil of the eye sufficiently, the monkey was anesthetized by intramuscularly administering Ketaral. Thereafter, the monkey was allowed to sit on a monkey chair and the head was fixed. […] On the basis of the resulting cross-sectional macular image, the thickness and volume of the macular central fovea were analyzed.

[2] = tested on: edema in a retinal visual cell layer of diabetic rats; test: Rat Test 2: edema in retinal visual cell layer after intraocular ischemia/reperfusion in STZ diabetic rats; assay type: in vivo
Procedure: The test was carried out in accordance with Efficacy Pharmacological Test Example 1. The set groups were the following 4 groups, and from 2 weeks after the treatment with STZ, 5% gum arabic solution or SNK-860 solution was orally administered once a day. • (1) Normal control group (10 rats): Given 5% gum arabic solution in a ratio of 5 ml/kg. • (2) Diabetic control group (9 rats): Given 5% gum arabic solution in a ratio of 5 ml/kg. • (3) Diabetic group given 2 mg/kg SNK-860 (10 rats): Given a suspension of SNK-860 (2 mg/5 ml) in 5% gum arabic solution in a ratio of 5 ml/kg. • (4) Diabetic group given 32 mg/kg SNK-860 (9 rats): Given a suspension of SNK-860 (32 mg/5 ml) in 5% gum arabic solution in a ratio of 5 ml/kg. Retinal ischemia produced by increasing the intraocular pressure was in accordance with Efficacy Pharmaceutical Test Example 1. Histological evaluation was also in accordance with Efficacy Pharmaceutical Test Example 1.

[3] = tested on: patients with diabetic macular edema; test: Clinical Results: macula lutea thickness (OCT), corrected visual acuity and safety in patients with diabetic macular edema; assay type: in vivo, humans
Procedure: Among patients with diabetic maculopathy, 10 patients with diabetic macular edema having a retinal thickening or a hard exudates in a posterior pole of the retina were subjects. SNK-860 was orally administered in a dose of 30 mg (2 tablets each containing 15 mg SNK-860) once a day before breakfast for 8 weeks. During this test period, simultaneous use of eparlestat, intravitreal injection and sub-Tenon injection of an adrenal cortical hormone, and photocoagulation and vitrectomy were prohibited. Basic therapy of diabetes mellitus was carried out so as to give good blood glucose control throughout the test period.
Evaluation was carried out in terms of the thickness of the macular central fovea (in the diameter range of 1 mm from the center of macula lutea) and the thickness at the center of the central fovea measured by optical coherence tomography (OCT, Carl Zeiss), as well as corrected visual acuity (Log MAR).
Log MAR (Log Minimum Angle of Resolution) is one kind of logarithmic visual acuity, which is visual acuity expressed in logarithmic minimum angle of resolution. Decimal visual acuity 1.0 used frequently in Japan is 0.0 in terms of Log MAR, and decimal visual acuity 0.1 is 1.0 in Log MAR. A log MAR visual acuity of 0.1 to 0.5 corresponds to a decimal visual acuity of 0.8 to 0.32.

[4] = tested on: edema in a retinal visual cell layer of diabetic rats; test: Rat Test 1: edema in retinal visual cell layer after intraocular ischemia/reperfusion in STZ diabetic rats; assay type: in vivo, Sprague Dawley rats; details: 32 mg/kg oral once a day, 2 weeks plus 2 days reperfusion
Procedure: (§1) Diabetes mellitus was induced in male Sprague Dawley rats (8-week-old) weighing about 250 g by injecting streptozotocin (STZ manufactured by Sigma) intravenously into their tail at the dose of 60 mg/kg. One week after the treatment with STZ, serum glucose was measured, and rats with at least 300 mg/dl glucose were then used in the experiment as diabetic rats. The set groups were the following 3 groups, and after 2 weeks after the treatment with STZ, 5% gum arabic solution or SNK-860 solution was orally administered once a day. • (1) Normal control group (5 rats): Given 5% gum arabic solution in a ratio of 5 ml/kg. • (2) Diabetic control group (7 rats): Given 5% gum arabic solution in a ratio of 5 ml/kg. • (3) Diabetic group given 32 mg/kg SNK-860 (4 rats): Given a suspension of SNK-860 (32 mg/5 ml) in 5% gum arabic solution in a ratio of 5 ml/kg.
(§2) After administration for 2 weeks, intraocular ischemia was caused by the treatment described below. After the treatment was finished, the animals were maintained as usual for 2 days, and thereafter, the eyeballs were excised and histologically evaluated. Administration of the pharmacological agent was also conducted for a period (2 days) of reperfusion after ischemic treatment. […]
(§3) In each of the resulting retinal images, the thickness of the visual cell layer was measured. […]

[5] = tested on: nuclei in the inner retinal layer (ganglion cell layer) of diabetic rats; test: Rat Test 1: loss of nuclei from ganglion cells after ischemia/reperfusion in STZ diabetic rats; assay type: in vivo, Sprague Dawley rats; details: 32 mg/kg oral once a day, 4 rats
Procedure: as §1, §2, §3

[6] = 32 mg/kg oral once a day for 2 weeks, before ischemia
[7] = 32 mg/kg oral once a day, 7 days after ischemia
[8] = 30 mg oral once a day for 8 weeks, 12 eyes, mean ± standard deviation
[9] = 30 mg oral once a day for 8 weeks, out of 12 eyes
[10] = baseline before administration, 12 eyes in 10 cases, mean ± standard deviation

With `NC(=O)[C@@H]1C[C@]2(NC(=O)NC2=O)c2cc(F)ccc2O1` [SNK-860, (2S,4S)-6-Fluoro-2′,5′-dioxospiro[chroman-4,4′-imidazolidine]-2-carboxamide] the “formation of edema in macular central fovea” value ([1]; 32 mg/kg oral once a day) was “formation of edema or its change was not observed”, the “Average macula lutea thickness, Before ischemia” value [1, 6] was 157 ± 6 μm and the “Average macula lutea volume, Before ischemia” value [1, 6] was 0.123 ± 0.005 mm^3. The “Average macula lutea thickness, 7 days after ischemia” value [1, 7] was 158 ± 2 μm, the “Average macula lutea volume, 7 days after ischemia” value [1, 7] was 0.124 ± 0.001 mm^3 and the “inhibitory action on edema in visual cell layer” value ([2]; 2 mg/kg oral once a day) was “no inhibitory action on edema was observed”. For the same molecule, the “inhibitory action on edema in visual cell layer” value ([2]; 32 mg/kg oral once a day) was “an evident inhibitory action on edema was observed”, the “Corrected visual acuity, Week 8” value [3, 8] was 0.24 Log MAR and 0.24 ± 0.20 Log MAR and the “Macula lutea thickness, Center of central fovea, Week 8” value [3, 8] was 298.7 μm and 298.7 ± 90.6 μm. The “Macula lutea thickness, Central fovea (diameter: 1 mm), Week 8” value [3, 8] was 300.4 μm and 300.4 ± 74.4 μm, the “Corrected visual acuity (eye number), 1-stage deterioration” value [3, 9] was 1 eyes and the “Corrected visual acuity (eye number), 1-stage improvement” value [3, 9] was 2 eyes. The “Corrected visual acuity (eye number), 2-stage improvement” value [3, 9] was 3 eyes, the “Corrected visual acuity (eye number), Unchanged” value [3, 9] was 6 eyes and the “side effects (safety)” value ([3]; 30 mg oral once a day for 8 weeks, patients) was “no particularly problematic side effects were recognized”. For the same molecule, the “Macula lutea thickness, Center of central fovea, When initiated” value [3, 10] was 323.1 μm and 323.1 ± 111.4 μm, the “Macula lutea thickness, Central fovea (diameter: 1 mm), When initiated” value [3, 10] was 324.3 μm and 324.3 ± 87.7 μm and the “Corrected visual acuity, When initiated” value ([3]; baseline before administration, 12 eyes, mean ± standard deviation) was 0.30 Log MAR and 0.30 ± 0.22 Log MAR. For the same molecule, the “edema / thickness of the visual cell layer (ischemic/re-perfused eye vs untreated eye)” value [4] was “no edema was observed” and the “loss of nuclei from ganglion cells” value [5] was “loss of nuclei was not observed in all 4 rats”.
